According to patent US6646181B1, “Solid matrix control of seed conditioning using selected cell cycle stages” (Kamterter II, L.L.C., priority 1987, dated 2003):

System: lettuce (Lactuca sativa) 'Montello'
Experiment: Alleviation of thermodormancy: lettuce germination at 35 C
Type: in vivo
Details: 35 C in the dark, after 10 days, priming 20-24 hours
Procedure: Alleviation of thermodormancy by priming was studied in lettuce (Lactuca sativa) ‘Montello’. SMP of lettuce was performed with Agro-Lig (Table 1). Conventional priming treatments included: −1.5 MPa PEG 8000 (Bradford, 1986, supra) and 1.0% K3PO4 (Cantliffe, et al., 1984, Plant Physiol. 75:290-294). After priming, seeds were rinsed and allowed to dry. Seeds were placed to germinate on moistened blotters in closed containers. The containers were maintained at a constant 35 C in the dark. There were four replications of 50 seeds each and the percent germination was determined after 10 days.

O=P([O-])([O-])[O-].[K+].[K+].[K+] [1.0% K3PO4, K3PO4]
Percent germination: 71 a %
